# Counter-ions that a name gives are not always drawn.
# Assays:
# [1] = Inactivation kinetics by HPLC of high potency APIs with chemical agents; assay type: physicochemical; settings: chemical agents and analytical methods appropriate for each API; different exposure time; HPLC (FIG. 4)
# Description: The inactivation kinetics by HPLC of high potency APIs bortezomib, decitabine, sunitinib malate, temozolomide and zoledronic acid was evaluated using chemical agents and analytical methods appropriate for each API.
# [2] = Inactivation kinetics by HPLC of imatinib mesylate liquid waste with hypochlorous acid; assay type: physicochemical; settings: 20 mg/mL aqueous solution, 1% hypochlorous acid aqueous solution as inactivation chemical agent
# Description: The inactivation kinetics by HPLC of a liquid waste comprising 20 mg/mL imatinib mesylate aqueous solution was evaluated using a 1% hypochlorous acid aqueous solution as inactivation chemical agent, as illustrated in FIGS. 2 and 3. It is possible to verify that 10 minutes of exposure were enough for complete inactivation of imatinib mesylate by hypochlorous acid.
# The equipment used was a High-Performance Liquid Chromatography-HPLC, Agilent Tech. Model 1260.
# Solution A: Prepare a mixture of methanol and acetonitrile (300:200) and homogenize.
# Mobile Phase: transfer 1.65 g of sodium dihydrogen phosphate dihydrate to a beaker. Dissolve in 550 mL of purified water and adjust pH to 8.0±0.2 using trimethylamine and homogenize. Add 450 mL of solution A, homogenize and filter using a membrane of 0.45 μm.
# Chromatographic Conditions:
# Column: Develosil ODS HG-5 (4.6×150 mm, 5 μm)—Phenomenex
# Column temperature: 30° C.
# Chromatographic time: 50 minutes
# Retention time for imatinib: about 18 minutes
# Sample temperature: 5° C.
Structure (SMILES),inactivation by chemical agent action [1],exposure time enough for complete inactivation [2] [min]
CCN(CC)CCNC(=O)c1c(C)[nH]c(/C=C2\C(=O)Nc3ccc(F)cc32)c1C [sunitinib malate],completely inactivated,–
CC(C)C[C@H](NC(=O)[C@H](Cc1ccccc1)NC(=O)c1cnccn1)B(O)O [bortezomib],completely inactivated,–
Cc1ccc(NC(=O)c2ccc(CN3CCN(C)CC3)cc2)cc1Nc1nccc(-c2cccnc2)n1 [imatinib mesylate],–,≤ 10

# — patent publication US11591243B2, “Industrial process and system for the inactivation of liquid waste” (CRISTALIA PRODUTOS QUIMICOS FARMACEUTICOS LTDA., priority 2018, dated 2023)
